Patent publication US11497210B2, “Compositions and methods for long lasting disinfection” (RHODIA OPERATIONS, priority 2018, dated 2022)

Key:
Enterobacter aerogenes [1] = assay: RSS-12 h residual self-sanitizing test (modified EPA Protocol #01-1A, 3 wear cycles); format: cell-based; conditions: 150 microliters
Protocol: In order to substantiate 24 hour long-term sanitization claims with the United States Environmental Protection Agency (EPA), compositions are evaluated with the residual self-sanitization (RSS) method, EPA Protocol #01-1A (https://www.epa.gov/sites/production/files/2015-09/documents/cloroxpcol_final.pdf). For validating longer term disinfection, all extant test protocols emulate the maximum amount of recontamination and abrasion by touching and wiping anticipated before reapplication, typically a 24 hour period. An intermediate protocol with approximately half the level abrasion and re-soiling challenge to a surface is presented here as the “RSS-12 h” test protocol.
Long lasting disinfection claims are substantiated by the RSS test, which challenges the applied composition by subjecting it to recontamination (re-inoculation with microorganisms) and abrasion (wear cycles). An intermediate test protocol, with approximately half the number of re-inoculations and wear cycles (“RSS-12 h”) is used to predict disinfection that is durable up to 12 hours before reapplication of the test product. As outlined in FIG. 1, this procedure requires preparation of the test bacterial (microbial) culture over the first week (see EPA Protocol #01-1A) followed by testing in week 2.
The testing involves inoculating the surface with bacteria, followed by application of the product on the substrate and allowing it to dry. The substrate may be glass, polycarbonate, or steel. This substrate is then subjected to an abrasion—re-inoculation regime of 3 “wear cycles”. The abrasion is conducted with a 1084 gwt. rectangular steel block covered with a cloth with an underlying thin polyurethane-foam layer. Each wear cycle is composed of a “dry” abrasion and a “wet” abrasion, the latter with the cloth cover having been wet with a mist of water using a Preval® sprayer. Each abrasion (dry/wet) is characterized by a back and forth motion of the block across the test substrate. Each abrasion cycle is followed by re-inoculation the surface with a bacterial culture. The RSS-12 h involves a 3-abrasion cycle/3-inoculations test as compared to the full RSS test that outlines a 6-abrasion cycle/6-inoculation test regimen. All other details of the test method are as outlined in the EPA Protocol #01-1A.
The test substrate is allowed to dry overnight and then finally inoculated again (sanitizer test) for 5 minutes, followed by neutralization of the entire substrate. Surviving bacteria is then harvested off the surface and cultured with serial dilutions on agar plates, allowing colony formation over 24-48 hours. Surviving bacteria are then counted as the number of colonies. […] The bacteria in this test may be substituted for other microorganisms such as fungi or viruses. In an embodiment, microorganisms are selected from gram-positive bacteria (e.g Staphylococcus aureus), gram-negative bacteria (e.g. Enterobacter aerogenes), fungi, enveloped viruses, non-enveloped viruses, and combinations thereof.
Films prepared from Formula C were evaluated using RSS-12 h protocol as described above, a modified version the residual self-sanitization (RSS) method, EPA Protocol #01-1A. Protocol #01-1A is a method approved by the EPA for measuring long-term sanitization claims (i.e., “kill later” durability claim). Protocol #01-1A, the entire contents of which are incorporated by reference, measures the residual self-sanitizing activity of dried chemical residues (films) on inanimate, hard, non-porous surfaces against bacteria: Staphylococcus aureus, Klebsiella pneumoniae, and/or Enterobacter aerogenes. In particular, surfaces are inoculated, treated with test product, allowed to dry, then abraded under alternating wet and dry conditions, which are interspersed with several re-inoculations. (FIG. 1).
The test shown in Table 3 was conducted on a steel substrate (1 inch×1 inch) with Enterobacter aerogenes, a gram negative bacteria which is typically more resistant. […]

Enterobacter aerogenes [2] = assay: RSS-24, EPA Protocol #01-1A residual self-sanitizing activity test (6 abrasion cycles); format: cell-based; conditions: Table 5, 150 microliters, stainless steel
Protocol: In order to substantiate 24 hour long-term sanitization claims with the United States Environmental Protection Agency (EPA), compositions are evaluated with the residual self-sanitization (RSS) method, EPA Protocol #01-1A (https://www.epa.gov/sites/production/files/2015-09/documents/cloroxpcol_final.pdf). For validating longer term disinfection, all extant test protocols emulate the maximum amount of recontamination and abrasion by touching and wiping anticipated before reapplication, typically a 24 hour period. An intermediate protocol with approximately half the level abrasion and re-soiling challenge to a surface is presented here as the “RSS-12 h” test protocol. […]
The test substrate is allowed to dry overnight and then finally inoculated again (sanitizer test) for 5 minutes, followed by neutralization of the entire substrate. […] Surviving bacteria are then counted as the number of colonies. […]
Formula C was then further evaluated by (EPA) Protocol #01-1A residual self-sanitizing activity test with 6 alternating abrasion cycles (wet and dry each) for a 24 hour claim. […] When evaluated with 150 microliters of Formula C on a (1×1) steel substrate with Enterobacter aerogenes, >3 LR were achieved as required by the test (Table 5), indicating a pass for RSS-24.

[3] = Table 4, reduced quat content, stainless steel

Triton X-100
Log (Enterobacter aerogenes [1]; Table 3, log of surviving cfu, stainless steel): 6.48 | Avg. cfu/carrier (Enterobacter aerogenes [1]; Table 3, stainless steel): 3.00E+06 cfu/carrier | geom. mean (Enterobacter aerogenes [1]; Table 3, stainless steel): 6.48 | Avg. cfu/carrier (Enterobacter aerogenes [1]; [3]): 1.29E+06 cfu/carrier | Log (Enterobacter aerogenes [1]; [3]): 6.11 | avg. cfu/surface (Enterobacter aerogenes [1]; stainless steel 1 inch x 1 inch, surviving population after final inoculation, triplicate): 3.00E+06 cfu/surface | Avg. cfu/carrier (Enterobacter aerogenes [2]): 1.85E+07 cfu/carrier | Log (Enterobacter aerogenes [2]): 7.27
